Source: ChEMBL document CHEMBL3885881, “DrugMatrix”

Species: Rattus norvegicus
Assay: DrugMatrix - Regimen: Daily Repeat
Type: toxicity, organism-based, Sprague-Dawley
Set-up: regimen Daily Repeat, gender Male, age 6-8 weeks
Conditions: in vivo, po, route oral GAVAGE, […]; for ABSOLUTE BASOPHIL / ABSOLUTE EOSINOPHIL / ABSOLUTE LYMPHOCYTE / ABSOLUTE MONOCYTE / ABSOLUTE SEGMENTED NEUTROPHIL / BASOPHIL / EOSINOPHIL / ERYTHROCYTE COUNT / HEMATOCRIT / HEMOGLOBIN / LEUKOCYTE COUNT / LYMPHOCYTE / MEAN CORPUSCULAR HEMOGLOBIN / MEAN CORPUSCULAR HEMOGLOBIN CONCENTRATION / MEAN CORPUSCULAR VOLUME / MONOCYTE / NEUTROPHIL / NUCLEATED RED BLOOD CELLS / PLATELET COUNT: tissue Blood; for ALANINE AMINOTRANSFERASE / ALBUMIN / ALKALINE PHOSPHATASE / ASPARTATE AMINOTRANSFERASE / BLOOD UREA NITROGEN / CARBON DIOXIDE / CHLORIDE / CHOLESTEROL / CREATINE PHOSPHOKINASE / CREATININE / GLUCOSE / LACTATE DEHYDROGENASE / LIPASE / PHOSPHORUS / SODIUM / TOTAL BILIRUBIN / TOTAL PROTEIN / URIC ACID: tissue Plasma
[1] = 0 mg/kg, 72 h, dose level Control, time 3 day
[2] = 0 mg/kg, 120 h, dose level Control, time 5 day
[3] = 450 mg/kg, 72 h, dose level Low, time 3 day

## CC[C@H](C)C(=O)O[C@H]1C[C@@H](C)C=C2C=C[C@H](C)[C@H](CC[C@@H]3C[C@@H](O)CC(=O)O3)[C@H]21 [LOVASTATIN]
[1]
  ABSOLUTE BASOPHIL: 0 CELLS/uL
  ABSOLUTE EOSINOPHIL: 52.33 CELLS/uL
  ABSOLUTE LYMPHOCYTE: 9105.33 CELLS/uL
  ABSOLUTE MONOCYTE: 155.67 CELLS/uL
  ABSOLUTE SEGMENTED NEUTROPHIL: 1020 CELLS/uL
  BASOPHIL: 0%
  EOSINOPHIL: 0.33%
  ERYTHROCYTE COUNT: 5.03 x10E6/uL
  HEMATOCRIT: 31.63%
  HEMOGLOBIN: 12.37 G/DL
  LEUKOCYTE COUNT: 10.33 x10E3/uL
  LYMPHOCYTE: 87%
  MEAN CORPUSCULAR HEMOGLOBIN: 24.57 pg
  MEAN CORPUSCULAR HEMOGLOBIN CONCENTRATION: 39.07 G/DL
  MEAN CORPUSCULAR VOLUME: 62.93 fL
  MONOCYTE: 1.33%
  NEUTROPHIL: 11.33%
  NUCLEATED RED BLOOD CELLS: 0 /100WBC
  PLATELET COUNT: 896 x10E3/uL
  ALANINE AMINOTRANSFERASE: 75.33 u/L
  ALBUMIN: 3.77 G/DL
  ALKALINE PHOSPHATASE: 378.67 u/L
  ASPARTATE AMINOTRANSFERASE: 101.33 u/L
  BLOOD UREA NITROGEN: 11.33 mg/dL
  CARBON DIOXIDE: 25 mmol/L
  CHLORIDE: 99 MEQ/L
  CHOLESTEROL: 66 mg/dL
  CREATINE PHOSPHOKINASE: 277 u/L
  CREATININE: 0.33 mg/dL
  GLUCOSE: 198.33 mg/dL
  LACTATE DEHYDROGENASE: 140.33 u/L
  LIPASE: 11.33 u/L
  PHOSPHORUS: 11.83 mg/dL
  SODIUM: 141.03 MEQ/L
  TOTAL BILIRUBIN: 0.2 mg/dL
  TOTAL PROTEIN: 5.47 G/DL
  URIC ACID: 0.93 mg/dL
[2]
  ABSOLUTE BASOPHIL: 0 CELLS/uL
  ABSOLUTE EOSINOPHIL: 0 CELLS/uL
  ABSOLUTE LYMPHOCYTE: 8734 CELLS/uL
  ABSOLUTE MONOCYTE: 98.67 CELLS/uL
  ABSOLUTE SEGMENTED NEUTROPHIL: 1034 CELLS/uL
  BASOPHIL: 0%
  EOSINOPHIL: 0%
  ERYTHROCYTE COUNT: 5.19 x10E6/uL
  HEMATOCRIT: 33.2%
  HEMOGLOBIN: 12.93 G/DL
  LEUKOCYTE COUNT: 9.87 x10E3/uL
  LYMPHOCYTE: 87%
  MEAN CORPUSCULAR HEMOGLOBIN: 25 pg
  MEAN CORPUSCULAR HEMOGLOBIN CONCENTRATION: 39.03 G/DL
  MEAN CORPUSCULAR VOLUME: 63.93 fL
  MONOCYTE: 1%
  NEUTROPHIL: 12%
  NUCLEATED RED BLOOD CELLS: 0 /100WBC
  PLATELET COUNT: 1190 x10E3/uL
  ALANINE AMINOTRANSFERASE: 75.67 u/L
  ALBUMIN: 4 G/DL
  ALKALINE PHOSPHATASE: 384.33 u/L
  ASPARTATE AMINOTRANSFERASE: 89.67 u/L
  BLOOD UREA NITROGEN: 13 mg/dL
  CARBON DIOXIDE: 32.67 mmol/L
  CHLORIDE: 103 MEQ/L
  CHOLESTEROL: 79.67 mg/dL
  CREATINE PHOSPHOKINASE: 199.33 u/L
  CREATININE: 0.29 mg/dL
  GLUCOSE: 161.33 mg/dL
  LACTATE DEHYDROGENASE: 92.33 u/L
  LIPASE: 11.67 u/L
  PHOSPHORUS: 10.8 mg/dL
  SODIUM: 145.3 MEQ/L
  TOTAL BILIRUBIN: 0.17 mg/dL
  TOTAL PROTEIN: 5.7 G/DL
  URIC ACID: 0.63 mg/dL
[3]
  ABSOLUTE BASOPHIL: 0 CELLS/uL
  ABSOLUTE EOSINOPHIL: 0 CELLS/uL
  ABSOLUTE LYMPHOCYTE: 6372 CELLS/uL
  ABSOLUTE MONOCYTE: 86.67 CELLS/uL
  ABSOLUTE SEGMENTED NEUTROPHIL: 1174.67 CELLS/uL
  BASOPHIL: 0%
  EOSINOPHIL: 0%
  ERYTHROCYTE COUNT: 5.39 x10E6/uL
  HEMATOCRIT: 33.63%
  HEMOGLOBIN: 13.47 G/DL
  LEUKOCYTE COUNT: 7.63 x10E3/uL
  LYMPHOCYTE: 82.67%
  MEAN CORPUSCULAR HEMOGLOBIN: 25 pg
  MEAN CORPUSCULAR HEMOGLOBIN CONCENTRATION: 40.07 G/DL
  MEAN CORPUSCULAR VOLUME: 62.43 fL
  MONOCYTE: 1.33%
  NEUTROPHIL: 16%
  NUCLEATED RED BLOOD CELLS: 0 /100WBC
  PLATELET COUNT: 1202.67 x10E3/uL
  ALANINE AMINOTRANSFERASE: 138.33 u/L
  ALBUMIN: 4.13 G/DL
  ALKALINE PHOSPHATASE: 450.67 u/L
  ASPARTATE AMINOTRANSFERASE: 224.33 u/L
  BLOOD UREA NITROGEN: 11 mg/dL
  CARBON DIOXIDE: 27.67 mmol/L
  CHLORIDE: 97.33 MEQ/L
  CHOLESTEROL: 35 mg/dL
  CREATINE PHOSPHOKINASE: 505 u/L
  CREATININE: 0.16 mg/dL
  GLUCOSE: 146 mg/dL
  LACTATE DEHYDROGENASE: 223.33 u/L
  LIPASE: 10.67 u/L
  PHOSPHORUS: 10.17 mg/dL
  SODIUM: 140.53 MEQ/L
  TOTAL BILIRUBIN: 0.1 mg/dL
  TOTAL PROTEIN: 5.37 G/DL
  URIC ACID: 0.5 mg/dL
